In the data set the test system is CCRIS mutagenicity, Ames/micronucleus/aberration tests. Description: CCRIS mutagenicity studies.
[1] abbreviates: Test System: AMES SALMONELLA TYPHIMURIUM, Strain/Indicator: TA100, Metabolic Activation: NONE, Method: STANDARD PLATE.
Setting [2] is: Test System: AMES SALMONELLA TYPHIMURIUM, Strain/Indicator: TA102, Metabolic Activation: NONE, Method: STANDARD PLATE.
The mark [3] stands for this setting: Test System: AMES SALMONELLA TYPHIMURIUM, Strain/Indicator: TA1535, Metabolic Activation: NONE, Method: STANDARD PLATE.
The mark [4] stands for this setting: Test System: AMES SALMONELLA TYPHIMURIUM, Strain/Indicator: TA1537, Metabolic Activation: NONE, Method: STANDARD PLATE.
Setting [5] is: Test System: AMES SALMONELLA TYPHIMURIUM, Strain/Indicator: TA98, Metabolic Activation: NONE, Method: STANDARD PLATE.
Where [6] appears, read: Test System: AMES SALMONELLA TYPHIMURIUM, Strain/Indicator: TA98, Metabolic Activation: RAT, LIVER, S-9, AROCLOR 1254, Method: STANDARD PLATE.
The mark [7] stands for this setting: Test System: AMES SALMONELLA TYPHIMURIUM, Strain/Indicator: TA100, Metabolic Activation: RAT, LIVER, S-9, AROCLOR 1254, Method: STANDARD PLATE.
Setting [8] is: Test System: AMES SALMONELLA TYPHIMURIUM, Strain/Indicator: TA1535, Metabolic Activation: RAT, LIVER, S-9, AROCLOR 1254, Method: STANDARD PLATE.
Setting [9] is: Test System: AMES SALMONELLA TYPHIMURIUM, Strain/Indicator: TA1537, Metabolic Activation: RAT, LIVER, S-9, AROCLOR 1254, Method: STANDARD PLATE.

This passage reports mutagenic call results from PubChem BioAssay AID1259407 (Chemical Carcinogenesis Research Information System (CCRIS), 2018).

The source made the active and inactive calls. How the calls were made is not given here.

As for `C(CCC1CO1)CC1CO1` (configuration not stated), the mutagenic call runs as follows: (Test System: AMES SALMONELLA TYPHIMURIUM, Strain/Indicator: TA97A, Metabolic Activation: NONE, Method: STANDARD PLATE) “active; positive”; under setting [1], “active; positive”; under setting [2], “active; positive”; (Test System: AMES SALMONELLA TYPHIMURIUM, Strain/Indicator: TA102, Metabolic Activation: RAT LIVER S-9, AROCLOR 1254, Method: STANDARD PLATE) “active; positive”; under setting [3], “active; positive”; under setting [4], “inactive; negative”.

Consider `C=CC(C)(C)c1cc2cc3c(cc2oc1=O)OC(C(C)(C)OC(C)=O)C3` (configuration not stated), for which the mutagenic call is “inactive; negative” under setting [5] and “inactive; negative” (Test System: AMES SALMONELLA TYPHIMURIUM, Strain/Indicator: TA98, Metabolic Activation: RAT, LIVER, S-9, PHENOBARBITAL, Method: STANDARD PLATE).

As to `OCC(O)CO`, the mutagenic call is “inactive; negative” (End Point: IN VITRO CHROMOSOMAL ABERRATIONS, Test System: CHO-WBL CELLS, Metabolic Activation: NONE); “inactive; negative” (Test System: AMES SALMONELLA TYPHIMURIUM, Strain/Indicator: TA97, Metabolic Activation: NONE, Method: PREINCUBATION); “inactive; negative” (Test System: AMES SALMONELLA TYPHIMURIUM, Strain/Indicator: TA97, Metabolic Activation: RAT, LIVER, S-9, AROCLOR 1254, Method: PREINCUBATION); “inactive; negative” (Test System: AMES SALMONELLA TYPHIMURIUM, Strain/Indicator: TA98, Metabolic Activation: NONE, Method: PREINCUBATION); “inactive; negative” (Test System: AMES SALMONELLA TYPHIMURIUM, Strain/Indicator: TA98, Metabolic Activation: RAT, LIVER, S-9, KC 500, Method: PREINCUBATION); “inactive; negative” (Test System: AMES SALMONELLA TYPHIMURIUM, Strain/Indicator: TA100, Metabolic Activation: NONE, Method: PREINCUBATION). Moreover, the mutagenic call (Test System: AMES SALMONELLA TYPHIMURIUM, Strain/Indicator: TA100, Metabolic Activation: RAT, LIVER, S-9, KC 500, Method: PREINCUBATION) was “inactive; negative”; the mutagenic call (Test System: AMES SALMONELLA TYPHIMURIUM, Strain/Indicator: TA102, Metabolic Activation: NONE, Method: PREINCUBATION) was “inactive; negative”; the mutagenic call (Test System: AMES SALMONELLA TYPHIMURIUM, Strain/Indicator: TA102, Metabolic Activation: RAT, LIVER, S-9, AROCLOR 1254, Method: PREINCUBATION) is “inactive; negative”; the mutagenic call (Test System: AMES SALMONELLA TYPHIMURIUM, Strain/Indicator: TA1535, Metabolic Activation: NONE, Method: PREINCUBATION) is “inactive; negative”; the mutagenic call (Test System: AMES SALMONELLA TYPHIMURIUM, Strain/Indicator: TA1535, Metabolic Activation: RAT, LIVER, S-9, KC 500, Method: PREINCUBATION) was “inactive; negative”; the mutagenic call (Test System: AMES SALMONELLA TYPHIMURIUM, Strain/Indicator: TA1537, Metabolic Activation: NONE, Method: PREINCUBATION) is “inactive; negative”. The mutagenic call is “inactive; negative” (Test System: AMES SALMONELLA TYPHIMURIUM, Strain/Indicator: TA1537, Metabolic Activation: RAT, LIVER, S-9, KC 500, Method: PREINCUBATION); “inactive; negative” (Test System: AMES SALMONELLA TYPHIMURIUM, Strain/Indicator: TA1538, Metabolic Activation: NONE, Method: PREINCUBATION); “inactive; negative” (Test System: AMES SALMONELLA TYPHIMURIUM, Strain/Indicator: TA1538, Metabolic Activation: RAT, LIVER, S-9, KC 500, Method: PREINCUBATION); “inactive; negative” (Test System: E. COLI, Strain/Indicator: WP2 UVRA, Metabolic Activation: NONE, Method: PREINCUBATION); “inactive; negative” (Test System: E. COLI, Strain/Indicator: WP2 UVRA, Metabolic Activation: RAT, LIVER, S-9, KC 500, Method: PREINCUBATION).

`Nc1cc(Cl)cc(Cl)c1`: the mutagenic call is “active; positive (structural changes and ploidy)” (End Point: In vitro chromosomal aberrations, Test System: Chinese hamster lung (CHL/IU) cells, Metabolic Activation: Rat, Liver, S9, Phenobarbital and 5,6-benzoflavone); “inactive; negative” under setting [5]; “inactive; negative” under setting [6]; “inactive; negative” under setting [1]; “inactive; negative” under setting [7]; “inactive; negative” (Test System: UDS RODENT HEPATOCYTES, Strain/Indicator: THY INCORP (NON-S-PHASE), Metabolic Activation: NONE, Method: AUTORADIOGRAPHY).

As for `CCCCC(CC)COP(=O)(OCC(CC)CCCC)OCC(CC)CCCC` (configuration not stated), the mutagenic call by setting is: (End Point: IN VITRO CHROMOSOMAL ABERRATIONS, Test System: CHO CELLS, Metabolic Activation: NONE) “inactive; negative”; (End Point: IN VITRO CHROMOSOMAL ABERRATIONS, Test System: CHO CELLS, Metabolic Activation: RAT, LIVER, S-9, AROCLOR 1254) “inactive; negative”; (Test System: AMES SALMONELLA TYPHIMURIUM, Strain/Indicator: TA98, Metabolic Activation: HAMSTER, LIVER, S-9, AROCLOR 1254, Method: STANDARD PLATE) “inactive; negative”; under setting [5], “inactive; negative”; under setting [6], “inactive; negative”; (Test System: AMES SALMONELLA TYPHIMURIUM, Strain/Indicator: TA100, Metabolic Activation: HAMSTER, LIVER, S-9, AROCLOR 1254, Method: STANDARD PLATE) “inactive; negative”. For the same molecule, the mutagenic call under setting [1] is “inactive; negative”; the mutagenic call under setting [7] is “inactive; negative”; the mutagenic call (Test System: AMES SALMONELLA TYPHIMURIUM, Strain/Indicator: TA1535, Metabolic Activation: HAMSTER, LIVER, S-9, AROCLOR 1254, Method: STANDARD PLATE) is “inactive; negative”; the mutagenic call under setting [3] is “inactive; negative”; the mutagenic call under setting [8] was “inactive; negative”; the mutagenic call (Test System: AMES SALMONELLA TYPHIMURIUM, Strain/Indicator: TA1537, Metabolic Activation: HAMSTER, LIVER, S-9, AROCLOR 1254, Method: STANDARD PLATE) was “inactive; negative”. For the same molecule, the mutagenic call is, setting by setting: under setting [4], “inactive; negative”; under setting [9], “inactive; negative”.

In the case of `N#[N+]c1ccc(CO)cc1`, the mutagenic call under setting [2] was “active; positive” and the mutagenic call (Test System: CHINESE HAMSTER V-79, Strain/Indicator: V-79/6-THIOGUANINE, Metabolic Activation: NONE) was “active; positive”.

As for `C=C(C)C(=O)OC(C)(C)C`, the mutagenic call reads like this: under setting [5], “inactive; negative”; under setting [6], “inactive; negative”; (Test System: AMES SALMONELLA TYPHIMURIUM, Strain/Indicator: TA98, Metabolic Activation: RAT, LIVER, S-9, SODIUM PHENOBARBITAL, Method: STANDARD PLATE) “inactive; negative”; under setting [1], “inactive; negative”; under setting [7], “inactive; negative”; (Test System: AMES SALMONELLA TYPHIMURIUM, Strain/Indicator: TA100, Metabolic Activation: RAT, LIVER, S-9, SODIUM PHENOBARBITAL, Method: STANDARD PLATE) “inactive; negative”. Besides, the mutagenic call by setting is: under setting [3], “inactive; negative”; under setting [8], “inactive; negative”; (Test System: AMES SALMONELLA TYPHIMURIUM, Strain/Indicator: TA1535, Metabolic Activation: RAT, LIVER, S-9, SODIUM PHENOBARBITAL, Method: STANDARD PLATE) “inactive; negative”; under setting [4], “inactive; negative”; under setting [9], “inactive; negative”; (Test System: AMES SALMONELLA TYPHIMURIUM, Strain/Indicator: TA1537, Metabolic Activation: RAT, LIVER, S-9, SODIUM PHENOBARBITAL, Method: STANDARD PLATE) “inactive; negative”. Also, the mutagenic call by setting is: (Test System: AMES SALMONELLA TYPHIMURIUM, Strain/Indicator: TA1538, Metabolic Activation: NONE, Method: STANDARD PLATE) “inactive; negative”; (Test System: AMES SALMONELLA TYPHIMURIUM, Strain/Indicator: TA1538, Metabolic Activation: RAT, LIVER, S-9, AROCLOR 1254, Method: STANDARD PLATE) “inactive; negative”; (Test System: AMES SALMONELLA TYPHIMURIUM, Strain/Indicator: TA1538, Metabolic Activation: RAT, LIVER, S-9, SODIUM PHENOBARBITAL, Method: STANDARD PLATE) “inactive; negative”.
